# Data published in PubChem BioAssay AID1996.
# Conditions: buffer; pH 7.4; 200.0 µM
row,SMILES,solubility kinetic
1,COc1ccc(S(=O)(=O)NCCNC(=O)N2CCOCC2)cc1,> 51.5 µg/mL
2,S=C(NCCCCc1ccccc1)NCc1ccccc1,7 µg/mL
3,CCCCCC#CCN1CCN(C23CC4CC(CC(C4)C2)C3)CC1,42.8 µg/mL
4,CCOC(=O)C1CCCN1C(=O)c1ccc(OC)c(Br)c1 (configuration not stated),> 53.4 µg/mL
5,CCC(C)[C@H](NC(=O)NCc1ccc(Cl)cc1)C(=O)O (some centres not stated),> 44.8 µg/mL
6,Cc1ccc(S(=O)(=O)N2CCOCC2)s1,> 37.1 µg/mL
7,CCO/N=C/C1=C(O)C(C(=O)OC)C(C)(C)CC1=O (configuration not stated),> 40.4 µg/mL
8,CCS(=O)(=O)N1CCC(C(=O)Oc2ccccc2Cl)CC1,46 µg/mL
9,COCCCNC(=O)C(=O)NC1CCCCC1C (configuration not stated),> 38.5 µg/mL
10,COc1ccc(CCNS(=O)(=O)c2cn(C)nc2C)cc1,> 46.4 µg/mL
11,COc1cc(CN2CCCCCC2)cc(OC)c1OC.O=C(O)C(=O)O,> 55.4 µg/mL
12,O=C(Cc1ccc([N+](=O)[O-])cc1)NC1CCCCCC1,15 µg/mL
13,CCOC(=O)C1CCN(C(=O)C2COc3ccccc3O2)CC1 (configuration not stated),32.3 µg/mL
14,CC(=O)N1CCN(C(=S)Nc2ccc(SC(F)F)cc2)CC1,> 51.8 µg/mL
15,CCCc1cc(C(=O)Nc2cc(OC)ccc2OC)cs1,8.6 µg/mL
16,CC(NC(=O)COC(=O)c1cccc(S(=O)(=O)N2CCCC2)c1)c1ccccc1 (configuration not stated),11.8 µg/mL
17,O=C(CS(=O)(=O)c1ccccc1)N1CCCCC1,> 40.1 µg/mL
18,COCCNc1nc(-c2ccccc2)nc2ccccc12.Cl,> 47.4 µg/mL
19,c1ccc2c3c(c(CN4CCCC4)cc2c1)COC3,> 38 µg/mL
20,CCOc1ccccc1CN1C(=O)C2(OCCO2)c2ccccc21,5.2 µg/mL
21,CC(OC(=O)c1ccc2ncsc2c1)C(=O)N1CCCC1 (configuration not stated),39.4 µg/mL
22,Cc1nc(N2CCCCC2)c2c(-c3cccs3)csc2n1,2.3 µg/mL
23,CCn1cc(C(=O)N2CCOCC2)c2ccccc21,> 38.7 µg/mL
24,Cc1[nH]c2ccccc2c1CCNCc1ccco1.Cl,> 43.6 µg/mL
25,COc1ccc(S(=O)(=O)N2CCSCC2)cc1,> 41 µg/mL
26,CN(CC(=O)NCCCN1CCOCC1)S(=O)(=O)c1ccc(Cl)cc1,> 58.5 µg/mL
27,COc1cc(OC)c(C(=O)OCC(=O)Nc2ccc(S(=O)(=O)N3CCOCC3)cc2)cc1OC,9.6 µg/mL

row,SMILES,solubility kinetic
1,CC(=O)c1ccc(NC(=S)NCCCN2CCOCC2)cc1,> 48.2 µg/mL
2,CCS(=O)(=O)Nc1ccccc1C(N)=O,> 34.2 µg/mL
3,O=S(=O)(c1ccc(=S)[nH]c1)N1CCCCCC1,32 µg/mL
4,CCN(CC)CCNC(=O)C(=O)Nc1ccc(C(=O)OC)cc1,> 48.2 µg/mL
5,Cc1ccc(C(=O)Nc2ccc(N3CCOCC3)nc2N2CCOCC2)cc1,5.6 µg/mL
6,N#CC1=C(S)N(c2ccc(F)cc2)C2(CCCCC2)NC1=O,> 47.6 µg/mL
7,O=C(OCC(=O)N1CCCCCC1)c1cccc(Cl)c1,> 44.4 µg/mL
8,Nc1nccnc1C(=O)OCC(=O)C12CC3CC(CC(C3)C1)C2,2.9 µg/mL
9,COCCSc1ncnc2c1oc1nc3c(cc12)COC(C)(C)C3,43 µg/mL
10,CCCc1nnc(SCC(=O)NC2CC2)n1C,> 38.2 µg/mL
11,Cc1ccc(-c2csc(NC(=O)CN3CCOCC3)n2)cc1C,39.2 µg/mL
12,CCC(C)c1ccc(S(=O)(=O)N2CCN(c3ccccn3)CC2)cc1 (configuration not stated),< 0.3 µg/mL
13,CC(=O)N1CCN(C(=O)c2ccc(C)c(S(=O)(=O)N3CCCCC3)c2)CC1,> 59 µg/mL
14,O=C(c1[nH]ncc1[N+](=O)[O-])N1CCOCC1,> 33.9 µg/mL
15,Cc1ccnc(SC2CC(=O)N(c3ccc([N+](=O)[O-])cc3)C2=O)n1 (configuration not stated),> 51.7 µg/mL
16,CC1CCCN(C(=O)COc2ccc3c(c2)OCO3)C1 (configuration not stated),> 41.6 µg/mL
17,Cc1ccc(N2C(=O)C3CCCN3C2=S)c(C)c1 (configuration not stated),> 39.1 µg/mL
18,CCC(Oc1ccc(C)c(C)c1)C(=O)N1CCCN(C)CC1 (configuration not stated),> 45.7 µg/mL
19,O=C(NC1CCCCC1)C(=S)NCc1ccccc1,1.4 µg/mL
20,Cc1cc(=O)oc2cc(OCC(=O)N3CCC(C(N)=O)CC3)ccc12,> 51.7 µg/mL
21,Cc1ccc(CN(C)Cc2cc(=O)oc3cc(C)c(Cl)cc23)cc1,< 0.7 µg/mL
22,CCC(C)c1ccc(NC(=S)N2CCN(S(C)(=O)=O)CC2)cc1 (configuration not stated),8.8 µg/mL
23,Cc1ccc(N2CCN(S(=O)(=O)N3CCCCC3)CC2)cc1C,1.8 µg/mL
24,Cc1nc(Cl)c(C(=O)NCCc2ccccc2)c(C)c1[N+](=O)[O-],3.5 µg/mL
25,Cc1nc(SCCc2ccccc2)[nH]c(=O)c1C,10.9 µg/mL
26,C=CCC(O)(CC=C)C(C)N.Cl (configuration not stated),> 28.8 µg/mL
27,NC(=O)C1CCN(CC(=O)Nc2cccnc2Cl)CC1,44.1 µg/mL

# Further lines, results first:
row,solubility kinetic,SMILES
1,1 µg/mL,Cc1cccc(N=C2NC(=O)/C(=C/c3cccn3C)S2)c1
2,44.7 µg/mL,CC1CCN(C(=O)c2ccc(NC(=O)c3cccs3)cc2)CC1
3,> 41.8 µg/mL,Cc1csc(SCC(=O)Nc2ccccc2C)n1
4,28.3 µg/mL,Cc1ccc(NC(=O)C(c2ccccc2)N(C)C)cc1Cl (configuration not stated)
5,2.6 µg/mL,CC(=O)Nc1cccc(C(=O)OCCCOc2ccc(F)cc2)c1
6,43.8 µg/mL,COc1cc(C2NC(=S)NC(c3ccccc3)=C2C(C)=O)ccc1O (configuration not stated)
7,2.2 µg/mL,Cc1ccc(NC(=O)NCc2cccn2C)cc1C
8,39.7 µg/mL,CN(C)CCNc1ncnc2sc(-c3ccccc3)cc12
9,27.1 µg/mL,Cc1cc(C(=O)Nc2sccc2C(N)=O)c(C)o1
10,> 44 µg/mL,Cc1cccc(NS(=O)(=O)c2cccc([N+](=O)[O-])c2)n1
11,12 µg/mL,CCc1ccc(-c2csc3nc[nH]c(=O)c23)cc1
12,0.5 µg/mL,Cc1cc(C)c(/C=C(\C#N)S(=O)(=O)c2ccccc2)[nH]1
13,> 52.2 µg/mL,COc1ccc(NC(=O)CC(Cc2ccc(Cl)cc2)C(=O)O)cc1 (configuration not stated)
14,> 48.2 µg/mL,CCOC(=O)Cn1ccc(NC(=O)COc2ccc(F)cc2)n1
15,41.5 µg/mL,O=C(O)c1nccnc1C(=O)Nc1ccc(Cl)cn1
16,35.9 µg/mL,Cc1cccc(C(=O)NC(=S)N(C)C2CCCCC2)c1
17,44.4 µg/mL,O=C1CN(C(=O)COc2c(F)c(F)cc(F)c2F)c2ccccc2N1
18,19.6 µg/mL,O=C1OC(c2ccc(F)cc2)=N/C1=C\C=C/c1ccccc1
19,40.2 µg/mL,Cc1cc(NC(=O)c2cccnc2)ccc1Br
20,> 49.4 µg/mL,O=C(CN1C(=O)c2ccc([N+](=O)[O-])cc2C1=O)NCc1ccco1
21,13 µg/mL,COC(=O)c1sccc1S(=O)(=O)Nc1ccc(Cl)cc1
22,41.5 µg/mL,O=C(C1CC(=O)N(c2ccc(F)cc2)C1)N1CCOCC1 (configuration not stated)
23,> 36.9 µg/mL,NC(=O)COC(=O)c1cc(=O)[nH]c2ccccc12

row,solubility kinetic,SMILES
1,> 46.8 µg/mL,CCCOc1ccc(-c2c(=O)n(O)c3ccccc3[n+]2[O-])cc1
2,> 47 µg/mL,COc1ccccc1N1CN(Cc2ccccc2)CNC1=S
3,10.9 µg/mL,Cc1ccc(NC(=O)NC(=O)c2cnccc2C(F)(F)F)c(C)c1
4,39.6 µg/mL,O=C(NC1CCCc2ccccc21)c1ccccc1Cl (configuration not stated)
5,46.9 µg/mL,O=C(NCCCn1ccnc1)c1ccc(Br)s1
6,1.6 µg/mL,COc1ccc(/C=C/C(=O)c2cc3c(cc2N)OCO3)cc1
7,> 52.1 µg/mL,O=C(O)c1ccc(S(=O)(=O)N2CCN(c3ccccn3)CC2)cc1
8,> 45.7 µg/mL,O=C(NCc1ccc(F)cc1)C1CC(=O)N(C2CCCC2)C1 (configuration not stated)
9,> 48.5 µg/mL,O=C1OCC2=C1C(c1ccc(F)cc1)CC(=O)N2c1ccccc1 (configuration not stated)
10,34.7 µg/mL,CC(=O)N/C(=C\c1ccc(Cl)cc1)C(=O)O
11,> 39.2 µg/mL,COc1ccc(/C=C/C(=O)N2CCCC2)cc1OC
12,< 0.7 µg/mL,O=C1/C(=C\c2cccc(O)c2)SC(=S)N1Cc1ccccc1
13,> 47.1 µg/mL,O=C(COC(=O)c1cc(Cl)ccc1O)NCC1CCCO1 (configuration not stated)
14,> 36 µg/mL,O=C(CCCc1ccccc1)Nc1ccccn1
15,> 42.3 µg/mL,O=C(Nc1nc2ccccc2[nH]1)c1ccccc1[N+](=O)[O-]
16,> 44.5 µg/mL,Cc1ccc(CN(C)CC(=O)NC(C)c2ccccc2)cc1 (configuration not stated)
17,> 42.2 µg/mL,O=C(O)CC(C(=O)Nc1ccc(F)cc1)C1CCCO1 (configuration not stated)
18,52.2 µg/mL,CC(C)C(=O)N1CCN(c2ccccc2NC(=O)c2ccc(Br)o2)CC1
19,> 50.9 µg/mL,O=C1CSC(c2cccnc2)N1Cc1ccc(Cl)cc1Cl (configuration not stated)
20,19.9 µg/mL,CC(C(=O)N(C)C)N1c2cccc3cccc(c23)S1(=O)=O (configuration not stated)
21,7.4 µg/mL,COc1ccccc1/C=C/C(=O)OCC(=O)NC1CCCCCCC1
22,43.5 µg/mL,COc1cccc(C(=O)c2c(C)c(CCC#N)n3ccccc23)c1
23,19.8 µg/mL,O=C(/C=C/c1cccnc1)c1cc(F)ccc1O

row,solubility kinetic,SMILES
1,> 64.3 µg/mL,O=C(CSc1ncccn1)Nc1ccc(Cl)c(S(=O)(=O)N2CCOCC2)c1
2,> 41.5 µg/mL,O=C(COc1ccc(Cl)cc1)NCc1ccncc1
3,> 50.6 µg/mL,O=C(CNC(=O)c1ccc(Br)o1)NCc1ccccc1
4,31.8 µg/mL,O=C(OCC(=O)N1CCc2ccccc2C1)c1c(F)cccc1Cl
5,> 50 µg/mL,CC(NS(=O)(=O)c1ccccc1)C(=O)NCCc1ccccn1 (configuration not stated)
6,29.1 µg/mL,CCNC(=O)COc1ccc(OCc2ccccc2)cc1
7,36.3 µg/mL,Cc1cccc(N(Cc2cc(=O)[nH]c3ccccc23)C(=O)C(C)C)c1
8,> 51.1 µg/mL,Cc1onc(-c2c(F)cccc2Cl)c1C(=O)N1CCSCC1
9,34.5 µg/mL,O=C1c2cccnc2C(=O)N1CNc1ccc(Cl)cc1
10,36.3 µg/mL,O=C(Nc1cccc(C(F)(F)F)c1)c1sc(Cl)nc1C(F)(F)F
11,1.3 µg/mL,O=C(NCc1ccc2c(c1)OCO2)Nc1cccc(Cl)c1
12,4.4 µg/mL,Cc1ccc(Cl)c(OCCN2CCc3ccccc3C2)c1.Cl
13,> 40.4 µg/mL,O=C(Nc1ccccc1)c1ccc2c(c1)OCCCO2
14,42.8 µg/mL,CCCC(=O)Nc1cc(C)c(NC(=O)c2ccco2)cn1
15,36 µg/mL,CC(CCc1ccccc1)NC(=O)Cc1cccs1 (configuration not stated)
16,> 38.3 µg/mL,Nc1nc(Nc2ccccc2)nc(C(F)(F)F)n1
17,3.2 µg/mL,Clc1ccc(-c2nc(-c3cnccn3)no2)cc1
18,> 34.9 µg/mL,O=C(Nc1ccncc1)c1ccccc1Cl
19,3.9 µg/mL,O=c1[nH]cccc1-c1nc2ccccc2n1Cc1ccccc1F
20,< 0.4 µg/mL,COc1ccc(-c2cc(C(=O)Nc3cccc(Cl)c3)no2)cc1
21,22.2 µg/mL,CCC(=O)Nc1cccc(C(=O)N(Cc2ccccc2)Cc2ccccc2)c1
22,9 µg/mL,COc1cc(SC)ccc1C(=O)Nc1ccccn1
